Experiments:
hCB1 = hCB1 (Homo sapiens, UniProt P21554); experiment: In vitro binding assay using hCB1-CHO membranes, [3H]-CP-55,940 displacement (Protocol II); design: expressed in transfected cells; host or cells: CHO (hCB1-CHO, generated in-house)
Experimental: II. Protocol for In Vitro Assay Using hCB1-CHO Membranes
The reaction was set up in a total volume of 200 μl in PEI (Poly(ethyleneimine)) (0.2%) precoated Millipore GFB (Glass Fibre-B) filter plates. 1 mM stocks of test compounds were prepared in DMSO and tested at a final concentration of 300 nM. The non-specific binding was determined by 0.5 μM CP-55, 940. […] The assay mixture (with or without the test compound) was incubated at 37° C. for 1 hour. The reaction was stopped by rapid filtration under vacuum and the radioactivity on the filters was measured by liquid scintillation counting.

hCB2 = hCB2 (Homo sapiens, UniProt P34972); experiment: In vitro binding assay using hCB2-CHO membranes, [3H]-CP-55,940 displacement (Protocol IV); design: expressed in transfected cells; host or cells: CHO (hCB2-CHO, generated in-house); details: hCB2-CHO membranes, [3H]-CP-55,940 displacement
How it was run: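 Compounds were tested at a single 300 nM final concentration for displacing 0.75 nM [3H]-CP-55,940 from hCB2-CHO membranes (1 h, 30 °C, 50 mM Tris pH 7.4, 5 mM MgCl2, 1 mM EDTA, 0.1% BSA). Filter-bound radioactivity was counted, with 0.5 μM unlabelled CP-55,940 for nonspecific binding; results are % displacement.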

CB1 = CB1 (Rattus norvegicus, UniProt P20272); experiment: Rat CB1 receptor binding using brain membrane, [3H]SR141716A displacement (Protocol I); design: CB1 receptor present in a rat brain membrane preparation; from tissue; host or cells: rat brain membrane; details: rat brain membrane, [3H]SR141716A displacement
Sequence of CB1 (P20272 whole entry): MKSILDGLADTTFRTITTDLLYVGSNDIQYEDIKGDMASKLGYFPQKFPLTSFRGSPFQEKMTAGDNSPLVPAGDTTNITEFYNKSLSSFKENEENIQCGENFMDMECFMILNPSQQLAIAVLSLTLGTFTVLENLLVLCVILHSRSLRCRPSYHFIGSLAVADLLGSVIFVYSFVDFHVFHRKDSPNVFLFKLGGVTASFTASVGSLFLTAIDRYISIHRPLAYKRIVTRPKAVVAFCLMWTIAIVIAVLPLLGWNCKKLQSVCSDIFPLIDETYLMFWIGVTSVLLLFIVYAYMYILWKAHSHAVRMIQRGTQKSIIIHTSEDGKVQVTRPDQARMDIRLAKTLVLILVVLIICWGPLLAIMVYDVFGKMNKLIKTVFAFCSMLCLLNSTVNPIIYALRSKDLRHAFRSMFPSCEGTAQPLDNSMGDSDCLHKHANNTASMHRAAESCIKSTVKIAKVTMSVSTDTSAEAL

Sequence of hCB1 (P21554 whole entry): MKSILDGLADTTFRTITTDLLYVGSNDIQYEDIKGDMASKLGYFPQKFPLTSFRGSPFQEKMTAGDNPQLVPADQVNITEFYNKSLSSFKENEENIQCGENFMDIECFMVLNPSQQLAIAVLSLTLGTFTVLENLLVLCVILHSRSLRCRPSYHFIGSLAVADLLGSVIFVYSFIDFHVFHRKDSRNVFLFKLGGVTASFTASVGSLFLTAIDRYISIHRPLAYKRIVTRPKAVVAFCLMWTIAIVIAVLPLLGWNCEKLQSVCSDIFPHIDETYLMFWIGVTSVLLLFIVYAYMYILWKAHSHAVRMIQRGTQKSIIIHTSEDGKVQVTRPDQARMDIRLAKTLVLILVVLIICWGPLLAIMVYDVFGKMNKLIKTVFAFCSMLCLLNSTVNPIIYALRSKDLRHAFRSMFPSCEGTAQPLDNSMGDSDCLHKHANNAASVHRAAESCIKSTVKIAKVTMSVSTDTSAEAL
Sequence of hCB2 (P34972 whole entry): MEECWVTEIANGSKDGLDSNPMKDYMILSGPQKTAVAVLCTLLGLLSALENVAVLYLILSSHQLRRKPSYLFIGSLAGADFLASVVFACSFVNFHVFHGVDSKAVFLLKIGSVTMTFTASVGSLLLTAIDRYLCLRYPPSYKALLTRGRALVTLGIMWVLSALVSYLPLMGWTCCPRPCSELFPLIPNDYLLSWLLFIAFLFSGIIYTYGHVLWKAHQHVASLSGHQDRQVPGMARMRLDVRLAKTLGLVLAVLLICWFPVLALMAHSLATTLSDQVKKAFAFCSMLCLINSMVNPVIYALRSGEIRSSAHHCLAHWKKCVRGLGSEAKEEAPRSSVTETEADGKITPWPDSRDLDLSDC

| SMILES | % Displacement Protocol II (hCB1) [%] | % Displacement Protocol IV (hCB2) [%] | % Displacement Protocol I (CB1) [%] |
| --- | --- | --- | --- |
| O=C(NCc1ccccc1)c1nn(-c2ccccc2Cl)c2c1C1CC3CC(C1)CC2C3 [Example 182, N(7)-Benzyl-5-(2-chlorophenyl)-5,6-diazatetracyclo[7.3.1.1^3,11.0^4,8]tetradeca-4(8)-6-diene-7-carboxamide] | 19.35 | 12.78 | 39.9 |
| O=C(NNc1ccc(Cl)c(Cl)c1)c1nn(-c2ccc(Cl)cc2)c2c1C1CCC2C1 (stereo not drawn) [Example 231, N(3)-[(3,4-Dichlorophenyl)amino]-1-(4-chlorophenyl)-4,5,6,7-tetrahydro-H-4,7-methano-indazole-3-carboxamide] | 30.79 |  | 31.9 |
| O=C(NCc1ccc(F)cc1)c1nn(-c2ccc(Cl)cc2)c2c1C1CC3CC(C1)CC2C3 [Example 113, N(7)-(4-Fluorobenzyl)-5-(4-chlorophenyl)-5,6-diazatetracyclo[7.3.1.1^3,11.0^4,8]tetradeca-4(8)-6-diene-7-carboxamide] | 27.70 | 17.02 | 55.9 |
| O=C(NCc1ccc(Cl)cc1)c1nn(-c2ccc(Cl)cc2)c2c1C1CC3CC(C1)CC2C3 [Example 112, N(7)-(4*Chlorobenzyl)-5-(4-chlorophenyl)-5,6-diazatetracyclo[7.3.1.1^3,11.0^4,8]tetradeca-4(8)-6-diene-7-carboxamide] | 25.76 |  | 59.9 |
| CN(NC(=O)c1nn(-c2ccc(Cl)cc2Cl)c2c1C1CCC2c2ccccc21)C1CCCCC1 (stereo not drawn) [Example 504, N(12)-[(N′-Cyclohexyl-N′-methyl)amino]-10-(2,4-dichlorophenyl)-10,11-diazatetracyclo[6.5.2.0^2,7.0^9,13]pentadeca-2,4,6,9(13),11-pentaene-12-carboxamide] | 62.9 |  | 79.7 |
| O=C(NN1CCCCC1)c1nn(-c2ccccc2)c2c1C1CC3CC(C1)CC2C3 [Example 169, N(7)-piperidino-5-phenyl-5,6-diazatetracyclo[7.3.1.1^3,11.0^4,8]tetradeca-4(8)-6-diene-7-carboxamide] | 29.65 |  | 19 |
| COC(=O)[C@@H](NC(=O)c1nn(-c2ccc(F)cc2F)c2c1C1CCC2C1)c1ccccc1 (stereo partly drawn) [Example 301, Methyl(2S)-2-[5-(2,4-difluorophenyl)-4,5-diazatricyclo[5.2.1.0.^2,6]deca-2(6),3-dien-3-ylcarboxamido]-2-phenylethanoate] | 82.54 | 82.09 |  |
| O=C(NCc1ccc(C(F)(F)F)cc1)c1nn(-c2ccc(Cl)cc2)c2c1C1CCC2C1 (stereo not drawn) [Example 227, N(3)-(4-Trifluoromethylbenzyl)-1-(4-chlorophenyl)-4,5,6,7-tetrahydro-H-4,7-methano-indazole-3-carboxamide] | 3.51 |  | 25.3 |
| O=C(Nc1ccccc1)c1nn(-c2ccccc2)c2c1C1CC3CC(C1)CC2C3 [Example 168, N(7)-Phenyl-5-phenyl-5,6-diazatetracyclo[7.3.1.1^3,11.0^4,8]tetradeca-4(8)-6-diene-7-carboxamide] | 11.47 |  | 37 |
| COC(=O)[C@H](NC(=O)c1nn(-c2ccc(F)cc2F)c2c1C1CCC2C1)c1ccccc1 (stereo partly drawn) [Example 319, Methyl (2R)-2-[5-(2,4-difluorophenyl)-4,5-diazatricyclo[5.2.1.0.^2,6]deca-2(6),3-dien-3-ylcarboxamido]-2-phenylethanoate] | 88.02 | 86.68 |  |
| CN(NC(=O)c1nn(-c2ccc(Cl)cc2)c2c1C1CC3CC(C1)CC2C3)c1ccc(Cl)cc1Cl.Cl [Example 128] | 37.28 |  | 83 |

Source: patent US7923465B2, “Cannabinoid receptor ligands, pharmaceutical compositions containing them, and process for their preparation” (priority 2005, dated 2011)
